These results are taken from patent US12636266B2 (Rivo Bio, Inc., priority 2024, dated 2026).

T1 sequence (P28223 whole entry): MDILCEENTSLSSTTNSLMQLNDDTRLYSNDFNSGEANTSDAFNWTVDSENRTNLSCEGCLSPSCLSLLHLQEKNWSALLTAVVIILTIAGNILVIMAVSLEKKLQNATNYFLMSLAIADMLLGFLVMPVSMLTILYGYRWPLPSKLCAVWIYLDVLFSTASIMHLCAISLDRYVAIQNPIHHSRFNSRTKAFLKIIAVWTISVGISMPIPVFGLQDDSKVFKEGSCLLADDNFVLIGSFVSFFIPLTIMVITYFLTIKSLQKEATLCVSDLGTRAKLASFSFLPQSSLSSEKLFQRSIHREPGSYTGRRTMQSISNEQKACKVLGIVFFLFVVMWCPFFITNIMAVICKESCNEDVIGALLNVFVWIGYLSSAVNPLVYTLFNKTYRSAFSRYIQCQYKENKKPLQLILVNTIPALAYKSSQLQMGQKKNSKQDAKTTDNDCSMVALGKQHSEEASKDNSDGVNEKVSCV

The first series has as its target T1, human recombinant 5-HT2A receptor (Homo sapiens, UniProt P28223).
T1 construct: host or cells: CHO-K1
Description: IPOne HTRF agonist assay, percent activity at 5-HT2A. The note with it: 0.3 μM (second value); relative to a-Me-5-HT; CHO-K1 cells. The format is cell-based. As for the experimental part:
Example 16: Percent (α-Me-5-HT) Activity at 5-HT2A Assay
Compounds were tested in the IPOne HTRF (Homogeneous Time Resolved Fluorescence) assay at Epics Therapeutics S.A. (Belgium). Briefly, CHO-K1 cells expressing human recombinant 5-HT2A receptor grown to mid-log phase in culture media without antibiotics were detached with PBS-EDTA, centrifuged and resuspended in medium without antibiotics buffer. 20,000 cells were distributed in a 96 well plate and incubated overnight at 37° C. with 5% CO2. For agonist testing (384-well, suspension), 5 μl of cells were dispensed on 5 μl of test compound or reference agonist in each well and the plate was incubated for 60 min. at 37° C. with 5% CO2. IP1-D2 reagent and anti-IP1 cryptate reagents were then dispensed in the wells and IP1 concentrations were then measured following the manufacturer recommendations.
(TR-FRET usually uses a lanthanide donor and a delayed reading to cut background.)
Turning to `COc1ccc2c(c1)/C(=C/CN(C)C)CC2` [Compound 5, N,N-Dimethyl[(E)-2-(6-methoxy-1-indanylidene)ethyl]amine], the “Percent (a-Me-5-HT) Activity at 5-HT2A (30 uM/0.3 μM)” value (from here on “Percent (a-Me-5-HT) Activity”) came out at 74%.

For the compound `COc1ccc2c(c1)/C(=C(\F)CN(C)C)CC2` [Compound 10, N,N-Dimethyl[(Z)-2-(6-methoxy-1-indanylidene)-2-fluoroethyl]amine], the “Percent (a-Me-5-HT) Activity” value was determined as 4%.

As for `COc1ccc2c(c1)/C(=C/CN1CCC1)CC2` [Compound 12, 1-[(E)-2-(6-Methoxy-1-indanylidene)ethyl]azetidine], the “Percent (a-Me-5-HT) Activity” value is given as 27%.

As for `CN(C)C/C=C1\CCc2ccc3c(c21)CCO3` [Compound 14, N,N-Dimethyl[(E)-2-(3-oxa-1,2,6,7-tetrahydro-as-indacen-8-ylidene)ethyl]amine], the “Percent (a-Me-5-HT) Activity” value is given as 6%.

For `CN(C)C/C=C1\C=Cc2ccccc21` [Compound 22, N,N-Dimethyl[(E)-2-(1-indenylidene)ethyl]amine], the “Percent (a-Me-5-HT) Activity” value turned out to be 5%.

With `C(/CN1CCC1)=C1/CCc2ccc3c(c21)CCO3` [Compound 24, 1-[(E)-2-(3-Oxa-1,2,6,7-tetrahydro-as-indacen-8-ylidene)ethyl]azetidine], the “Percent (a-Me-5-HT) Activity” value was determined as 17%.

Regarding `FC(F)(F)Oc1ccc2c(c1)/C(=C/CN1CCC1)CC2` [Compound 27, 1-[(E)-2-(6-Trifluoromethoxy-1-indanylidene)ethyl]azetidine], the “Percent (a-Me-5-HT) Activity” value is listed as 5%.

Take `C(/CN1CCC1)=C1/CCc2cccnc21` [Compound 28, 1-[(E)-2-(4-Aza-3-indanylidene)ethyl]azetidine]: the “Percent (a-Me-5-HT) Activity” value was 5/5%.

Turning to `COC1C/C(=C\CN)c2ccccc21` (stereo not shown) [Compound 29], the “Percent (a-Me-5-HT) Activity” value is reported as 6%.

For `COC1C/C(=C\CN2CCC2)c2ccccc21` (stereo not shown) [Compound 30, 1-[(E)-2-(3-Methoxy-1-indanylidene)ethyl]azetidine], the “Percent (a-Me-5-HT) Activity” value was 3%.

On to `CN(C)C/C=C1\CCc2sccc21` [Compound 31, N,N-Dimethyl[(E)-2-{2-thiabicyclo[3.3.0]octa-1(5),3-dien-6-ylidene}ethyl]amine], for which the “Percent (a-Me-5-HT) Activity” value amounted to 3%.

`CCC(N)/C=C1\CCc2ccccc21` (stereo not shown) [Compound 101, 1-[(E)-(1-Indanylidene)methyl]propylamine]: the “Percent (a-Me-5-HT) Activity” value amounted to 15%.

With `OCc1ccc2c(c1)/C(=C/CN1CCC1)CC2` [Compound 103, {(E)-3-[2-(1-Azetidinyl)ethylidene]-5-indanyl}methanol], the “Percent (a-Me-5-HT) Activity” value stood at 9%.

The series is the same for the next values; noted with them: 30 uM (first value); relative to a-Me-5-HT; CHO-K1 cells.
On to `COc1ccc2c(c1)/C(=C/CN(C)C)CC2` [Compound 5, N,N-Dimethyl[(E)-2-(6-methoxy-1-indanylidene)ethyl]amine], for which the “Percent (a-Me-5-HT) Activity” value stood at 96%.

`COc1ccc2c(c1)/C(=C(\F)CN(C)C)CC2` [Compound 10, N,N-Dimethyl[(Z)-2-(6-methoxy-1-indanylidene)-2-fluoroethyl]amine]: the “Percent (a-Me-5-HT) Activity” value was 1%.

On to `COc1ccc2c(c1)/C(=C/CN1CCC1)CC2` [Compound 12, 1-[(E)-2-(6-Methoxy-1-indanylidene)ethyl]azetidine], for which the “Percent (a-Me-5-HT) Activity” value turned out to be 47%.

For `CN(C)C/C=C1\CCc2ccc3c(c21)CCO3` [Compound 14, N,N-Dimethyl[(E)-2-(3-oxa-1,2,6,7-tetrahydro-as-indacen-8-ylidene)ethyl]amine], the “Percent (a-Me-5-HT) Activity” value was 33%.

On to `CN(C)C/C=C1\C=Cc2ccccc21` [Compound 22, N,N-Dimethyl[(E)-2-(1-indenylidene)ethyl]amine], for which the “Percent (a-Me-5-HT) Activity” value is given as 49%.

Turning to `C(/CN1CCC1)=C1/CCc2ccc3c(c21)CCO3` [Compound 24, 1-[(E)-2-(3-Oxa-1,2,6,7-tetrahydro-as-indacen-8-ylidene)ethyl]azetidine], the “Percent (a-Me-5-HT) Activity” value was determined as 38%.

As to `FC(F)(F)Oc1ccc2c(c1)/C(=C/CN1CCC1)CC2` [Compound 27, 1-[(E)-2-(6-Trifluoromethoxy-1-indanylidene)ethyl]azetidine], the “Percent (a-Me-5-HT) Activity” value is reported as 8%.

As to `C(/CN1CCC1)=C1/CCc2cccnc21` [Compound 28, 1-[(E)-2-(4-Aza-3-indanylidene)ethyl]azetidine], the “Percent (a-Me-5-HT) Activity” value is 5/5%.

As to `COC1C/C(=C\CN)c2ccccc21` (stereo not shown) [Compound 29], the “Percent (a-Me-5-HT) Activity” value stood at 53%.

For the compound `COC1C/C(=C\CN2CCC2)c2ccccc21` (stereo not shown) [Compound 30, 1-[(E)-2-(3-Methoxy-1-indanylidene)ethyl]azetidine], the “Percent (a-Me-5-HT) Activity” value is 24%.

Turning to `CN(C)C/C=C1\CCc2sccc21` [Compound 31, N,N-Dimethyl[(E)-2-{2-thiabicyclo[3.3.0]octa-1(5),3-dien-6-ylidene}ethyl]amine], the “Percent (a-Me-5-HT) Activity” value came to 2%.

In the case of `CCC(N)/C=C1\CCc2ccccc21` (stereo not shown) [Compound 101, 1-[(E)-(1-Indanylidene)methyl]propylamine], the “Percent (a-Me-5-HT) Activity” value worked out at 20%.

As to `OCc1ccc2c(c1)/C(=C/CN1CCC1)CC2` [Compound 103, {(E)-3-[2-(1-Azetidinyl)ethylidene]-5-indanyl}methanol], the “Percent (a-Me-5-HT) Activity” value was 94%.

The series is the same for the next values; noted with them: 1 h; 0.3 μM (second value); relative to a-Me-5-HT; CHO-K1 cells; read-out: Percent (a-Me-5-HT) Activity at 5-HT2A (30 uM/0.3 μM).
Regarding `COc1ccc2c(c1)/C(=C(/F)CN(C)C)CC2` [Compound 23, N,N-Dimethyl[(E)-2-(6-methoxy-1-indanylidene)-2-fluoroethyl]amine], the activation at 0.3 µM was -1%.

As for `COc1ccc2c(c1)CC/C2=C\CN1CCC1` [Compound 25, 1-[(E)-2-(5-Methoxy-1-indanylidene)ethyl]azetidine], the activation at 0.3 µM worked out at 0%.

Regarding `COc1ccc2c(c1)CC/C2=C\CN(C)C` [Compound 26, N,N-Dimethyl[(E)-2-(5-methoxy-1-indanylidene)ethyl]amine], the activation at 0.3 µM amounted to 10%.

The same series, now with this note: 1 h; 30 uM (first value); relative to a-Me-5-HT; CHO-K1 cells; read-out: Percent (a-Me-5-HT) Activity at 5-HT2A (30 uM/0.3 μM).
In the case of `COc1ccc2c(c1)/C(=C(/F)CN(C)C)CC2` [Compound 23, N,N-Dimethyl[(E)-2-(6-methoxy-1-indanylidene)-2-fluoroethyl]amine], the activation at 30 µM was -2%.

Consider `COc1ccc2c(c1)CC/C2=C\CN1CCC1` [Compound 25, 1-[(E)-2-(5-Methoxy-1-indanylidene)ethyl]azetidine], for which the activation at 30 µM is -3%.

Take `COc1ccc2c(c1)CC/C2=C\CN(C)C` [Compound 26, N,N-Dimethyl[(E)-2-(5-methoxy-1-indanylidene)ethyl]amine]: the activation at 30 µM was -1%.

System in another series: not listed separately
The series can be described thus: Z to E isomer conversion by NMR. It is filed as physicochemical. The following applies: shortly following synthesis. As for the experimental part: Compound 5, described here with structure shown in Scheme 1, is the stable E isomer. However, the initial reaction in Scheme 1 with compound 5-1 produces both the E and Z isomers of 5-2b. Column chromatography was used to separate the isomers and each isomer was then carried through the next three reactions separately, to produce both compound 5 and its Z isomer.
On to `COc1ccc2c(c1)/C(=C\C=O)CC2` (single isomer, unassigned) [Z isomer of compound 5-4], for which the “Z isomer converting to the E isomer (by NMR)” value amounted to 40%.

The target of a further series is T1, human recombinant 5-HT2A receptor. The series can be described thus: IPOne HTRF agonist assay, percent activity at 5-HT2A. The following applies: relative to 5-HT. It is filed as cell-based.
On to `COc1ccc2c(c1)/C(=C/CN(C)C)CC2` [Compound 5, N,N-Dimethyl[(E)-2-(6-methoxy-1-indanylidene)ethyl]amine], for which the “Percent (5-HT) Activity at 5-HT2A (30 μM)” value is 92%.
